From patent US5773459A, “Urea- and thiourea-type compounds” (Sugen, Inc., priority 1995, dated 1998)

Molecular target: T1, FLK-1 receptor (Mus musculus, UniProt P35918)
T1 construct: expressed in transfected cells; host or cells: NIH3T3 C7#3 (FLK-1 infected cells)
Assay: ELISA Assay to Measure Kinase Activity of FLK-1 Receptor in FLK-1/NIH Cells
Format: cell-based, murine
Settings: cellular, VEGF stimulated; read-out: ELISA DATA: FLK-1 - (Cell.)
Excerpt: For purposes of this application, although the nomenclature of the human and murine counterparts of the generic "flk-l" receptor differ, they are, in many respects, interchangeable. The murine receptor, FLK1, and its human counterpart, KDR, share a sequence homology of 93.4% within the intracellular domain. Likewise, murine FLK-1 binds human VEGF with the same affinity as mouse VEGF, and accordingly, is activated by the ligand derived from either species. Millauer et al., 1993, Cell 72:835-846; Quinn et al., 1993, Proc. Natl. Acad. Sci. USA 90:7533-7537. FLK-1 also associates with and subsequently tyrosine phosphorylates human RTK substrates (e.g., PLC-γ or p85) when coexpressed in 293 cells (human embryonal kidney fibroblasts).
Models which rely upon the FLK-1 receptor therefore are directly applicable to understanding the KDR receptor. For example, use of the murine FLK-1 receptor in methods to identify compounds which regulate the signal transduction pathway are directly applicable to the identification of compounds which may be used to regulate the human signal transduction pathway, and more specifically, activity related to the KDR receptor. Chemical compounds identified as inhibitors of KDR/FLK-1 in vitro, will be confirmed in suitable in vivo models.
ELISA Assay to Measure Kinase Activity of FLK-1 Receptor in FLK-1/NIH Cells […]

T1 sequence (P35918 20-1345): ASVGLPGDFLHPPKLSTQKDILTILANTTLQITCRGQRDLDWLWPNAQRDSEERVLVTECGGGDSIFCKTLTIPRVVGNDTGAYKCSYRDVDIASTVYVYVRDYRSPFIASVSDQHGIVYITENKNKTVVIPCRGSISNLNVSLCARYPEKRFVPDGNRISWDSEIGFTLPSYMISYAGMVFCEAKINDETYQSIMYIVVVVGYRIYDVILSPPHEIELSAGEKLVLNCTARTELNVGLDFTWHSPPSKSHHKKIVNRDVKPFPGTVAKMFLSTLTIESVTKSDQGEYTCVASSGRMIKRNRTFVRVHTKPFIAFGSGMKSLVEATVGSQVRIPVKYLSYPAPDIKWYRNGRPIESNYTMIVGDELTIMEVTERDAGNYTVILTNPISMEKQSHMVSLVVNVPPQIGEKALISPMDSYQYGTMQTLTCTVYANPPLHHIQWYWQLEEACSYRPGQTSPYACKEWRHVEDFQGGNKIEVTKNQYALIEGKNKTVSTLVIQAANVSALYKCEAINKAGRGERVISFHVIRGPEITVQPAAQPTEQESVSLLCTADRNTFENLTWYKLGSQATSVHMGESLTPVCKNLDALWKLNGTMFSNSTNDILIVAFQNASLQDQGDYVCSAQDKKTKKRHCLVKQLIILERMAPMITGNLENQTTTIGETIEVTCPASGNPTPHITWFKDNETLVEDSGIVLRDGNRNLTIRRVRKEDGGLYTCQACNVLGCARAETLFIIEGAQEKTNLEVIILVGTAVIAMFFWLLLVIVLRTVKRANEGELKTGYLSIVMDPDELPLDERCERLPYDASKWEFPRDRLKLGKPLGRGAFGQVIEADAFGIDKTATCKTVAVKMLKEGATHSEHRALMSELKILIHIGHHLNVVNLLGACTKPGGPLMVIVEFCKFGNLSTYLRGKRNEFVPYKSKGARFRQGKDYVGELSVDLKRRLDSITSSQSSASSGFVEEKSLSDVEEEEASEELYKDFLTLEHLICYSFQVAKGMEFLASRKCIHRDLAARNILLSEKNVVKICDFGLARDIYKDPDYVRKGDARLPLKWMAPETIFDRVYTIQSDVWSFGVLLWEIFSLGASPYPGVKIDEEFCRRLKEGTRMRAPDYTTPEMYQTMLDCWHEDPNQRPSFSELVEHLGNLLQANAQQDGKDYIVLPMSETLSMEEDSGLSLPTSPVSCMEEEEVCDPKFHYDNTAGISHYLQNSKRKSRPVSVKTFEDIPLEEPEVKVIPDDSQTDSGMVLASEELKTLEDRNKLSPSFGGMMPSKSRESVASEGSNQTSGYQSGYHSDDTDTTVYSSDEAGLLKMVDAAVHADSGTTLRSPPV

SMILES	IC50 [nM]
CC(C)S(=O)(=O)c1csc(NC(=O)Nc2cc(C(F)(F)F)cc(C(F)(F)F)c2)c1Cl [Example Z2, N-[3-Chloro-4-(isopropylsulfonyl)thien-2-yl]-N'-(3,5-di-trifluoromethylphenyl)urea]	> 100000
CC(C)S(=O)(=O)c1csc(NC(=O)Nc2ccc(C(C)(C)C)cc2)c1Cl [Example Z1, N-[3-Chloro-4-(isopropylsulfonyl)thien-2-yl]-N'-(4-t-butylphenyl)urea]	1000
